According to article PMC5834492, “Antimycobacterial drug discovery using Mycobacteria-infected amoebae identifies anti-infectives and new molecular targets” (Scientific Reports, 2018):
Like-named read-outs stand apart in the source and are kept apart here.

Experiments:
[1] = system: M. marinum in BV2 microglial cells; format: cell-based, Mycobacterium marinum
Mtb H37Rv = system: Mtb H37Rv; set-up: method as in Sorrentino et al, 2015; conditions: ref Sorrentino et al, 2015; cited from earlier work
D. discoideum GFP-ABD = conditions: 10 µM
[2] = system: M. marinum in A. castellanii; format: cell-based, Mycobacterium marinum; conditions: 10 µM
M. marinum luxCDABE = format: cell-based, Mycobacterium marinum; conditions: 10 µM
M. marinum GFP = format: cell-based, Mycobacterium marinum; conditions: 10 µM; antibiotic assay
Mtb H37Rv in THP-1 = system: Mtb H37Rv in THP-1; set-up: method as in Sorrentino et al, 2015; conditions: ref Sorrentino et al, 2015, cited from earlier work; for Extracellular MIC90/ Inracellular MIC90: ratio
[3] = THP1 / Mtb H37Rv infection assay

Structure (SMILES) | IC50 [1] | BV2 / M. marinum normalised growth, control=1.00, mean ([1]; 10 µM) | Extracellular MIC90 (Mtb H37Rv) | D. discoideum GFP-ABD normalised growth, control=1.00, mean (D. discoideum GFP-ABD) | A. castellanii / M. marinum normalised growth, control=1.00, mean [2] | M. marinum luxCDABE normalised growth, control=1.00, mean (M. marinum luxCDABE) | M. marinum GFP normalised growth, control=1.00, mean (M. marinum GFP) | Intracelullar MIC90 in THP-1 (Mtb H37Rv in THP-1; [3]) | Extracellular MIC90/ Inracellular MIC90 (Mtb H37Rv in THP-1) | anti-infective properties in microglial cell (BV2) infection assay ([1]; 10 µM) | hit in BV2/M. marinum assay True/False ([1]; 10 µM) | Hits A. castellanii/M. marinum assay True/False [2] | anti-infective properties in A. castellanii infection assay [2] | M. marinum luxCDABE normalised growth, control = 1.00, mean (M. marinum luxCDABE) | Intracelullar MIC90 in THP-1 (Mtb H37Rv in THP-1; Mtb H37Rv-infected THP1 cells)
O=C(NNC(=O)c1ccc([N+](=O)[O-])o1)c1ccc2ccccc2c1 [GSK347301A] | 6.58 µM | 0.97 | 8.3 µM | 0.49 | 0.90 | 0.19 | 1.03 | 16.65 µM | 0.5 | – | – | – | – | – | –
FC(F)(F)c1nnc2ccc(Cl)nn12 [GSK352635A] | 7.58 µM | 0.89 | 9.1 µM | 1.17 | 1.02 | 0.60 | 0.81 | 50 µM | 0.18 | – | – | – | – | – | –
CNc1nc(SC)nc2ccccc12 [GSK353069A] | 1.31 µM | 0.42 | 0.2 µM | 0.99 | 0.47 | 0.00 | 0.0149 | 0.07 µM | 2.86 | strong anti-infective properties | TRUE | TRUE | strong anti-infective properties | 0,00 | 0.07 µM
C=CCNc1nc(SC)nc2ccccc12 [GSK353071A] | 4.77 µM | 0.53 | 3.2 µM | 0.92 | 0.77 | 0.095 | 0.09 | 1.85 µM | 1.73 | – | – | – | – | – | –
N=C(Nc1nc(-c2ccccn2)cc2ccccc12)c1cccc(Cl)c1 [GSK381407A] | 7.71 µM | 0.65 | 4.5 µM | 0.98 | 1.06 | 0.00 | 7.92e-5 | 0.61 µM | 7.38 | – | – | – | – | – | –
Cc1nc2ccccn2c1C(=O)NCc1ccc2c(c1)OCO2 [GSK498315A] | 5.95 µM | 0.47 | 2.9 µM | 0.81 | 0.56 | 0.00 | 0.0644 | 1.85 µM | 1.57 | – | TRUE | FALSE | – | 0,00 | 1.85 µM
COc1cc2ccccc2cc1C(=O)NCc1cccc(-c2ccccc2OC)c1 [GSK695914A] | 7.82 µM | 0.48 | 2.2 µM | 0.98 | 0.63 | 0.00 | 0.0549 | 5.55 µM | 0.4 | – | TRUE | FALSE | – | 0,00 | 5.55 µM
COc1ccc2nc(C)cc(OCC(=O)Nc3cc(C)cc(C)c3)c2c1 [GSK749336A] | 7.32 µM | 0.63 | 0.3 µM | 0.67 | 0.58 | 0.00 | 0.14 | 5.55 µM | 0.05 | – | – | – | – | – | –
COc1ccc(CCNC(=O)c2c(C)nc3ccccn23)cc1 [GSK762874A] | 3.64 µM | 0.59 | 3.1 µM | 1.04 | 0.70 | 0.00 | 0.08 | 5.55 µM | 0.56 | – | – | – | – | – | –
Cc1cccc(Cn2ccc(NC(=O)c3ccc4c(c3)OCO4)n2)c1 [GSK798463A] | 5.01 µM | 0.80 | 3.7 µM | 0.66 | 0.57 | 0.00 | 0.0323 | 5.55 µM | 0.67 | – | – | – | – | – | –
c1csc(Cc2nn3c(-c4[nH]nc5c4CCC5)nnc3s2)c1 [GSK810037A] | 4.8 µM | 0.81 | 2.4 µM | 0.76 | 1.03 | 0.11 | 0.73 | 1.85 µM | 1.3 | – | – | – | – | – | –
O=C(c1cc2ccccc2o1)N1CCN(Cc2ccc3c(c2)OCO3)CC1 [GSK861337A] | 9.31 µM | 0.77 | 2.7 µM | 0.31 | 0.70 | 0.00 | 0.10 | 5.55 µM | 0.49 | – | – | – | – | – | –
COc1ccc(CCNc2cc(-c3ccccc3)nc3ncnn23)cc1 [GSK888636A] | 5.42 µM | 0.72 | 0.6 µM | 1.15 | 1.02 | 0.00 | 0.44 | 1.85 µM | 0.32 | – | – | – | – | – | –
Cc1nc2ccccn2c1C(=O)NCc1cccs1 [GSK892651A] | 4.41 µM | 0.60 | 9 µM | 0.83 | 0.65 | 0.00 | 0.12 | 5.55 µM | 1.62 | – | – | – | – | – | –
